{"source": "PubChem BioAssay (NCI)", "assay_in_all_cases": "NCI-60 cell line screen, 48 h", "key": {"MOLT-4 leukemia": {"system": "MOLT-4 leukemia"}, "MDA-N": {"system": "MDA-N"}, "OVCAR-8 ovarian": {"system": "OVCAR-8 ovarian"}, "UACC-257 melanoma": {"system": "UACC-257 melanoma"}, "OVCAR-3 ovarian": {"system": "OVCAR-3 ovarian"}, "786-0 renal": {"system": "786-0 renal"}, "RPMI-8226 leukemia": {"system": "RPMI-8226 leukemia"}, "HCT-116 colon": {"system": "HCT-116 colon"}, "MDA-MB-231 breast": {"system": "MDA-MB-231 breast"}, "HS 578T breast": {"system": "HS 578T breast"}, "OVCAR-5 ovarian": {"system": "OVCAR-5 ovarian"}, "HCC-2998 colon": {"system": "HCC-2998 colon"}, "DU-145 prostate": {"system": "DU-145 prostate"}, "NCI-H460 lung": {"system": "NCI-H460 lung"}, "U251 CNS": {"system": "U251 CNS"}, "MDA-MB-435": {"system": "MDA-MB-435"}, "MCF7 breast": {"system": "MCF7 breast"}, "K-562 leukemia": {"system": "K-562 leukemia"}, "M14 melanoma": {"system": "M14 melanoma"}, "SNB-75 CNS": {"system": "SNB-75 CNS"}, "HOP-62 NSCLC": {"system": "HOP-62 NSCLC"}, "ACHN renal": {"system": "ACHN renal"}, "SK-MEL-5 melanoma": {"system": "SK-MEL-5 melanoma"}, "TK-10 renal": {"system": "TK-10 renal"}, "NCI-H522 lung": {"system": "NCI-H522 lung"}, "SNB-19 CNS": {"system": "SNB-19 CNS"}, "EKVX NSCLC": {"system": "EKVX NSCLC"}, "KM12 colon": {"system": "KM12 colon"}, "T-47D breast": {"system": "T-47D breast"}, "HCT-15 colon": {"system": "HCT-15 colon"}, "SK-OV-3 ovarian": {"system": "SK-OV-3 ovarian"}, "COLO 205 colon": {"system": "COLO 205 colon"}, "BT-549 breast": {"system": "BT-549 breast"}, "CAKI-1 renal": {"system": "CAKI-1 renal"}, "A498 renal": {"system": "A498 renal"}, "SN12C renal": {"system": "SN12C renal"}, "UO-31 renal": {"system": "UO-31 renal"}, "RXF 393 renal": {"system": "RXF 393 renal"}, "NCI-H226 lung": {"system": "NCI-H226 lung"}, "UACC-62 melanoma": {"system": "UACC-62 melanoma"}, "SF-295 CNS": {"system": "SF-295 CNS"}, "CCRF-CEM leukemia": {"system": "CCRF-CEM leukemia"}, "HT29 colon": {"system": "HT29 colon"}, "SR leukemia": {"system": "SR leukemia"}, "SK-MEL-2 melanoma": {"system": "SK-MEL-2 melanoma"}, "NCI-H23 lung": {"system": "NCI-H23 lung"}, "HL-60(TB) leukemia": {"system": "HL-60(TB) leukemia"}, "SF-268 CNS": {"system": "SF-268 CNS"}, "PC-3 prostate": {"system": "PC-3 prostate"}, "MALME-3M melanoma": {"system": "MALME-3M melanoma"}, "HOP-92 NSCLC": {"system": "HOP-92 NSCLC"}, "NCI/ADR-RES ovarian": {"system": "NCI/ADR-RES ovarian"}, "IGROV1 ovarian": {"system": "IGROV1 ovarian"}, "OVCAR-4 ovarian": {"system": "OVCAR-4 ovarian"}, "SK-MEL-28 melanoma": {"system": "SK-MEL-28 melanoma"}, "A549 NSCLC": {"system": "A549 NSCLC"}, "LOX IMVI melanoma": {"system": "LOX IMVI melanoma"}, "SW-620 colon": {"system": "SW-620 colon"}}, "note": "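The compound was tested at five concentrations on cells cultured in 96-well plates, with a 48-hour exposure period. GI50 is the concentration that inhibits growth by half. TGI marks complete inhibition of growth.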 Activity calls are given as the source filed them. Rule as the data show it: active = GI50 below about 0.43 µM; inactive = the rest.", "data": [{"smiles": "COc1ccc(C(=O)C#Cc2cnc(OC)nc2OC)cc1", "values": [{"measurement": "GI50", "setting": "MOLT-4 leukemia", "value": 17.9, "unit": "mM"}, {"measurement": "TGI", "setting": "MDA-N", "value": 0.00389, "unit": "mM"}, {"measurement": "GI50", "setting": "OVCAR-8 ovarian", "value": 32.3, "unit": "mM"}, {"measurement": "TGI", "setting": "OVCAR-8 ovarian", "value": 0.0034, "unit": "mM"}, {"measurement": "GI50", "setting": "UACC-257 melanoma", "value": 40.8, "unit": "mM"}, {"measurement": "TGI", "setting": "UACC-257 melanoma", "value": 0.00563, "unit": "mM"}, {"measurement": "TGI", "setting": "OVCAR-3 ovarian", "value": 0.00324, "unit": "mM"}, {"measurement": "outcome", "setting": "OVCAR-3 ovarian", "value": "inactive"}, {"measurement": "GI50", "setting": "786-0 renal", "value": 22, "unit": "mM"}, {"measurement": "GI50", "setting": "RPMI-8226 leukemia", "value": 40.1, "unit": "mM"}, {"measurement": "TGI", "setting": "RPMI-8226 leukemia", "value": 0.0052, "unit": "mM"}, {"measurement": "TGI", "setting": "HCT-116 colon", "value": 0.00275, "unit": "mM"}, {"measurement": "outcome", "setting": "HCT-116 colon", "value": "inactive"}, {"measurement": "TGI", "setting": "MDA-MB-231 breast", "value": 86.7, "unit": "mM"}, {"measurement": "TGI", "setting": "HS 578T breast", "value": 0.0277, "unit": "mM"}, {"measurement": "outcome", "setting": "HS 578T breast", "value": "inactive"}, {"measurement": "GI50", "setting": "OVCAR-5 ovarian", "value": 31.1, "unit": "mM"}, {"measurement": "TGI", "setting": "OVCAR-5 ovarian", "value": 0.00301, "unit": "mM"}, {"measurement": "TGI", "setting": "HCC-2998 colon", "value": 0.00383, "unit": "mM"}, {"measurement": "outcome", "setting": "HCC-2998 colon", "value": "inactive"}, {"measurement": "TGI", "setting": "DU-145 prostate", "value": 0.00486, "unit": "mM"}, {"measurement": "outcome", "setting": "DU-145 prostate", "value": "inactive"}, {"measurement": "TGI", "setting": "NCI-H460 lung", "value": 0.0108, "unit": "mM"}, {"measurement": "outcome", "setting": "NCI-H460 lung", "value": "inactive"}, {"measurement": "GI50", "setting": "U251 CNS", "value": 58.9, "unit": "mM"}, {"measurement": "TGI", "setting": "U251 CNS", "value": 0.00262, "unit": "mM"}, {"measurement": "GI50", "setting": "MDA-MB-435", "value": 28.2, "unit": "mM"}, {"measurement": "TGI", "setting": "MCF7 breast", "value": 0.00254, "unit": "mM"}, {"measurement": "GI50", "setting": "K-562 leukemia", "value": 12.1, "unit": "mM"}, {"measurement": "GI50", "setting": "M14 melanoma", "value": 27.9, "unit": "mM"}, {"measurement": "TGI", "setting": "M14 melanoma", "value": 0.00264, "unit": "mM"}, {"measurement": "TGI", "setting": "SNB-75 CNS", "value": 0.0048, "unit": "mM"}, {"measurement": "outcome", "setting": "SNB-75 CNS", "value": "inactive"}, {"measurement": "TGI", "setting": "HOP-62 NSCLC", "value": 0.0307, "unit": "mM"}, {"measurement": "outcome", "setting": "HOP-62 NSCLC", "value": "inactive"}, {"measurement": "GI50", "setting": "ACHN renal", "value": 17.2, "unit": "mM"}, {"measurement": "GI50", "setting": "SK-MEL-5 melanoma", "value": 25.6, "unit": "mM"}, {"measurement": "GI50", "setting": "TK-10 renal", "value": 17.7, "unit": "mM"}, {"measurement": "GI50", "setting": "NCI-H522 lung", "value": 12.7, "unit": "mM"}, {"measurement": "TGI", "setting": "SNB-19 CNS", "value": 0.0247, "unit": "mM"}, {"measurement": "outcome", "setting": "SNB-19 CNS", "value": "inactive"}, {"measurement": "GI50", "setting": "EKVX NSCLC", "value": 23.7, "unit": "mM"}, {"measurement": "GI50", "setting": "KM12 colon", "value": 56.1, "unit": "mM"}, {"measurement": "TGI", "setting": "KM12 colon", "value": 0.0116, "unit": "mM"}, {"measurement": "TGI", "setting": "T-47D breast", "value": 61.4, "unit": "mM"}, {"measurement": "GI50", "setting": "HCT-15 colon", "value": 17.2, "unit": "mM"}, {"measurement": "TGI", "setting": "SK-OV-3 ovarian", "value": 0.0272, "unit": "mM"}, {"measurement": "outcome", "setting": "SK-OV-3 ovarian", "value": "inactive"}, {"measurement": "TGI", "setting": "COLO 205 colon", "value": 42.1, "unit": "mM"}, {"measurement": "GI50", "setting": "BT-549 breast", "value": 25.4, "unit": "mM"}, {"measurement": "GI50", "setting": "CAKI-1 renal", "value": 25.3, "unit": "mM"}, {"measurement": "TGI", "setting": "A498 renal", "value": 0.0351, "unit": "mM"}, {"measurement": "outcome", "setting": "A498 renal", "value": "inactive"}, {"measurement": "TGI", "setting": "SN12C renal", "value": 0.00263, "unit": "mM"}, {"measurement": "GI50", "setting": "UO-31 renal", "value": 19.1, "unit": "mM"}, {"measurement": "GI50", "setting": "RXF 393 renal", "value": 26.8, "unit": "mM"}, {"measurement": "GI50", "setting": "NCI-H226 lung", "value": 16.9, "unit": "mM"}, {"measurement": "GI50", "setting": "UACC-62 melanoma", "value": 31.9, "unit": "mM"}, {"measurement": "TGI", "setting": "UACC-62 melanoma", "value": 0.0028, "unit": "mM"}, {"measurement": "TGI", "setting": "SF-295 CNS", "value": 0.0248, "unit": "mM"}, {"measurement": "outcome", "setting": "SF-295 CNS", "value": "inactive"}, {"measurement": "GI50", "setting": "CCRF-CEM leukemia", "value": 2.53, "unit": "mM"}, {"measurement": "TGI", "setting": "CCRF-CEM leukemia", "value": 10.8, "unit": "mM"}, {"measurement": "GI50", "setting": "HT29 colon", "value": 17.9, "unit": "mM"}, {"measurement": "GI50", "setting": "SR leukemia", "value": 12.5, "unit": "mM"}, {"measurement": "TGI", "setting": "SR leukemia", "value": 43.1, "unit": "mM"}, {"measurement": "GI50", "setting": "SK-MEL-2 melanoma", "value": 36.1, "unit": "mM"}, {"measurement": "GI50", "setting": "NCI-H23 lung", "value": 35, "unit": "mM"}, {"measurement": "TGI", "setting": "NCI-H23 lung", "value": 0.00308, "unit": "mM"}, {"measurement": "GI50", "setting": "HL-60(TB) leukemia", "value": 22.1, "unit": "mM"}, {"measurement": "TGI", "setting": "SF-268 CNS", "value": 0.00741, "unit": "mM"}, {"measurement": "outcome", "setting": "SF-268 CNS", "value": "inactive"}, {"measurement": "GI50", "setting": "PC-3 prostate", "value": 27.8, "unit": "mM"}, {"measurement": "TGI", "setting": "PC-3 prostate", "value": 0.00258, "unit": "mM"}, {"measurement": "GI50", "setting": "MALME-3M melanoma", "value": 16.6, "unit": "mM"}, {"measurement": "GI50", "setting": "HOP-92 NSCLC", "value": 19.7, "unit": "mM"}, {"measurement": "TGI", "setting": "NCI/ADR-RES ovarian", "value": 79, "unit": "mM"}, {"measurement": "GI50", "setting": "IGROV1 ovarian", "value": 20.3, "unit": "mM"}, {"measurement": "TGI", "setting": "OVCAR-4 ovarian", "value": 0.0944, "unit": "mM"}, {"measurement": "outcome", "setting": "OVCAR-4 ovarian", "value": "inactive"}, {"measurement": "GI50", "setting": "SK-MEL-28 melanoma", "value": 89.8, "unit": "mM"}, {"measurement": "TGI", "setting": "SK-MEL-28 melanoma", "value": 0.00347, "unit": "mM"}, {"measurement": "TGI", "setting": "A549 NSCLC", "value": 0.0157, "unit": "mM"}, {"measurement": "outcome", "setting": "A549 NSCLC", "value": "inactive"}, {"measurement": "GI50", "setting": "LOX IMVI melanoma", "value": 9.8, "unit": "mM"}, {"measurement": "GI50", "setting": "SW-620 colon", "value": 25.2, "unit": "mM"}]}]}
